Tests used:
[1] = test system: hES cells (embryoid bodies)
Description: In this experiment, hES cells were maintained on primary mouse embryonic fibroblasts in serum-free medium according to standard methods.
The EBs were fed every other day.
Various analogs of butyrate were also tested at 5 mM.

[2] = test system: hES derived embryoid bodies; experiment: Marker analysis by immunocytochemistry, PAS glycogen stain and BrdU labelling; assay type: cell-based, human; conditions: 20% FBS and 5 mM sodium n-butyrate
Description: The morphology of the differentiated cells was remarkably uniform, showing a large polygonal surface and binucleated center characteristic of mature hepatocytes.
On the sixth day after plating in the differentiation agent, the cells were analyzed for expression of markers by RT-PCR and immunocytochemistry. Glycogen content in these cells was determined using periodic acid Schiff stain. The number of cells in S phase of cell cycle was determined by incubating the cells with 10 μM BrdU on day 5 after plating, and subsequently staining with anti-BrdU antibody 24 hours later.

For CC(/C=C/C(=O)NO)=C\[C@@H](C)C(=O)c1ccc(N(C)C)cc1 [Trichostatin A], the toxicity to cells ([1]; at 2.5-100 μM) was “toxic”, the hepatocyte differentiation ([1]; at 10-50 nM) was “ineffective” and the “hepatocyte differentiation and selection against other cell types” value ([1]; at 75-100 nM) was “appeared both to induce hepatocyte differentiation, and to select against survival of other cell types”.

For CCCC(=O)[O-].[Na+] [sodium n-butyrate], the “% positive cells, BrdU staining” value ([2]; 10 μM BrdU on day 5, stained 24 hours later) was 16%, the “% positive cells, Glycogen staining” value ([2]; periodic acid Schiff stain) was 60% and the “% positive cells, Albumin” value ([2]; sixth day after plating) was 55%. For the same molecule, the “% positive cells, CK8” value ([2]; sixth day after plating) was 100%, the “% positive cells, CK18” value ([2]; sixth day after plating) was 100% and the “% positive cells, CK19” value ([2]; sixth day after plating) was 100%. For the same molecule, the “% positive cells, Desmin” value ([2]; sixth day after plating) was 0%, the “% positive cells, α1-antitrypsin” value ([2]; sixth day after plating) was 90% and the “% positive cells, α-fetoprotein” value ([2]; sixth day after plating) was 0%. For the same molecule, the “cell survival one day after plating” value ([1]; EBs plated in 20% FBS and 5 mM sodium butyrate) was “large proportion of apparently dead cells”.
